The values that follow come from publication PMC6723808, “New Benzofuranoids and Phenylpropanoids from the Mangrove Endophytic Fungus, Aspergillus sp. ZJ-68” (Marine Drugs, 2019).

Values after ≈ are worked out from the molar mass of the structure shown.

Test in all cases: Antibacterial assay, MIC by continuous dilution method in 96-well plates
For one experiment, the system named is E. coli (ATCC 25922). The experiment is classed as cell-based, Escherichia coli. The note with it: for MIC: Escherichia coli, ATCC25922, E. coli ATCC 25922, read-out: MIC (μg/mL) E. coli. The method, then: (§1) Two Gram-positive bacteria B. subtilis (ATCC 6633) and S. aureus (ATCC 25923), and two Gram-negative bacteria E. coli (ATCC 25922) and P. aeruginosa (ATCC 27853) were used. The antibacterial assay and the determination of the MIC were assessed according to continuous dilution method in 96-well plates which has been described in our published paper. The tested substances were dissolved in DMSO and ciprofloxacin was the positive control.

The test system of a further experiment is S. aureus (ATCC 25923). The experiment is classed as cell-based, Staphylococcus aureus. The note with it: for MIC: Staphylococcus aureus, ATCC25923, S. aureus ATCC 25923, read-out: MIC (μg/mL) S. aureus. As to the method: as §1
For the next experiment, the system named is B. subtilis (ATCC 6633). It counts as cell-based, Bacillus subtilis. The conditions noted are these: for MIC: Bacillus subtilis, ATCC6633, B. subtilis ATCC 6633, read-out: MIC (μg/mL) B. subtilis. The method, then:
as §1

The subject of experiment [1] is P. aeruginosa (ATCC 27853). It counts as cell-based. The conditions noted are these: Pseudomonas aeruginosa, ATCC27853, read-out: MIC (μg/mL) P. aeruginosa. As to the method: as §1

As for `CCCc1ccc(O)c(O)c1CO` [Compound 6, Asperpanoid A], the MIC (in the experiment on E. coli (ATCC 25922); with S. aureus (ATCC 25923); in the experiment with B. subtilis (ATCC 6633); in experiment [1]) was greater than 100 µg/mL throughout.

For the compound `CCCc1cccc(O)c1CO` [Compound 8, 2-(hydroxymethyl)-3-propylphenol], in the experiment on E. coli (ATCC 25922) (E. coli ATCC 25922), the “MIC (μg/mL) E. coli” value amounted to 8.3 ± 1.0 µg/mL (≈ 49.9 µM). The MIC was 4.15 to 12.5 µg/mL (≈ 25 to 75.2 µM) with E. coli (ATCC 25922), 4.15 to 12.5 µg/mL (≈ 25 to 75.2 µM) in the experiment with S. aureus (ATCC 25923), 4.15 to 12.5 µg/mL (≈ 25 to 75.2 µM) in the experiment with B. subtilis (ATCC 6633) and greater than 100 µg/mL in experiment [1]. For the same compound, the “MIC (μg/mL) S. aureus” value with S. aureus (ATCC 25923) (S. aureus ATCC 25923) is 4.15 ± 1.12 µg/mL (≈ 25 µM). Also, the “MIC (μg/mL) B. subtilis” value with B. subtilis (ATCC 6633) (B. subtilis ATCC 6633) was 8.3 ± 1.1 µg/mL (≈ 49.9 µM).

On to `CCCc1ccc2c(c1CO)O[C@@H](C(C)(C)O)C2` [Compound 11, (−)-brassicadiol], for which the MIC in experiment [1] is greater than 100 µg/mL.

Turning to `CC(C)=C1Oc2c(ccc3c2[C@@H](O)O[C@H](C)C3)C1=O` [Compound 12, (+)-pseudodeflectusin], the MIC (in the experiment on E. coli (ATCC 25922); in the experiment on S. aureus (ATCC 25923); in the experiment on B. subtilis (ATCC 6633); in experiment [1]) was greater than 100 µg/mL each time.

Take `CC(C)=C1Oc2c(ccc(CC(C)O)c2CO)C1=O` (stereo not drawn) [Compound 14, ustusorane A]: the MIC (with E. coli (ATCC 25922); in the experiment on S. aureus (ATCC 25923); with B. subtilis (ATCC 6633); in experiment [1]) was greater than 100 µg/mL each time.

Take `O=C(O)c1cn(C2CC2)c2cc(N3CCNCC3)c(F)cc2c1=O` [ciprofloxacin, reference compound]: the MIC was determined as 1.25 ± 1.12 µg/mL (≈ 3.77 µM) in the experiment with E. coli (ATCC 25922), 1.25 ± 1.1 µg/mL (≈ 3.77 µM) with S. aureus (ATCC 25923), 2.5 ± 1.1 µg/mL (≈ 7.54 µM) in the experiment with B. subtilis (ATCC 6633) and 2.5 ± 1.2 µg/mL (≈ 7.54 µM) in experiment [1].
